The source of these data is patent publication US20240201589A1, “ACTINIC RAY-SENSITIVE OR RADIATION-SENSITIVE RESIN COMPOSITION, ACTINIC RAY-SENSITIVE OR RADIATION-SENSITIVE FILM, PATTERN FORMING METHOD, AND METHOD FOR MANUFACTURING ELECTRONIC DEVICE” (FUJIFILM Corporation, priority 2021, published 2024).

The term pKa denotes the pH at which an ionisable group is half protonated. A low value points to a group that gives up its proton readily.

A short description of this data set: Acid dissociation constants pKa of acid generated from compound (I), by computation (ACD/Labs software package 1; Gaussian 16 DFT if not computable). As to conditions: Table 1; values equal the difference between maximum and minimum pKa of the generated acid groups. An excerpt:
In the present specification, the acid dissociation constant (pKa) is the pKa in an aqueous solution and is specifically a value determined by computation using the following software package 1 based on a Hammett substituent constant and a database of known literature values.
All pKa values in the present specification are values determined by computation using this software package.
Software package 1: Advanced Chemistry Development (ACD/Labs) Software V 8.14 for Solaris (1994-2007 ACD/Labs).
In the present specification, the pKa is a value determined by computation using the software package 1 based on the Hammett substituent constant and the database of known literature values as described above. When the pKa cannot be computed using this method, a value obtained using Gaussian 16 based on the DFT (density functional theory) is used.
The pKa values of the at least two acid groups generated from the compound (I) upon irradiation with actinic rays or radiation are determined using the following method.
(1) Suppose that all the acid anionic groups included in the compound (I) are replaced with their corresponding acid groups to generate an acid group-containing compound (PIA). In this case, there are two cases depending on the structure of the compound (I). In one case (case A), the acid group-containing compound (PIA) generated is a single compound (single molecule) having a plurality of acid groups. In the other case (case B), a plurality of compounds (plurality of molecules) each having at least one acid group are formed.
(2) The case A (its one specific example is mode 1 described below) will be described. A compound in which, among the plurality of acid groups included in the acid group-containing compound (PIA), an acid group having the smallest acid dissociation constant is reconverted to the corresponding acid anionic group is defined as an acid group-containing compound (PIA-1). The pKa when the acid group-containing compound (PIA) is converted to the acid group-containing compound (PIA-1) is determined and used as the pKa of the acid group reconverted to the acid anionic group. Next, a compound in which, among one or the plurality of acid groups included in the acid group-containing compound (PIA-1), an acid group having the smallest acid dissociation constant (when only one acid group is present, this acid group is used) is reconverted to the corresponding acid anionic group is defined as an acid group-containing compound (PIA-2). The pKa when the acid group-containing compound (PIA-1) is converted to the acid group-containing compound (PIA-2) is determined and used as the pKa of the acid group reconverted to the acid anionic group. This procedure is repeated until the resulting compound has no acid group, and the pKa values of the plurality of acid groups included in the acid group-containing compound (PIA) are thereby determined.
In the above method, when the number of acid groups having the smallest acid dissociation constant among the plurality of acid groups is two or more, one of these acid groups is arbitrarily selected, and the pKa when the compound is converted to a compound (PIA #) obtained by reconverting the selected acid group to its corresponding acid anionic group is determined. As for the pKa value of each of the remaining (unselected) acid groups, the pKa when the compound (PIA #) is converted to a “compound (PIA ##) obtained by reconverting an acid group newly selected from the remaining acid groups to its corresponding acid anionic group” is determined and used.
For a compound having one acid group, the pKa when the acid group in this compound is reconverted to the corresponding acid anionic group is used as the pKa of the acid group. When the compound having at least one acid group is a compound having a plurality of acid groups, the pKa of each acid group is determined using the method described in (2) above. […]
Consider `Cc1ccc([I+]c2ccc(C(=O)NS(=O)(=O)C(F)(F)C(F)(F)C(F)(F)S(=O)(=O)[N-]S(=O)(=O)C(F)(F)F)cc2)cc1` [Compound X-12], for which the pKa is reported as 5.67. Regarding `O=C(NC(=O)C(F)(F)S(=O)(=O)[O-])c1ccc([S+](c2ccccc2)c2ccccc2)cc1` [Compound X-1], the pKa is recorded as 9.96. In the case of `O=C([N-]S(=O)(=O)C(F)(F)C(F)(F)C(F)(F)S(=O)(=O)[N-]C(=O)c1ccccc1[S+](c1ccccc1)c1ccccc1)c1ccccc1[I+]c1ccccc1` [Compound X-9] it was 0.89. The compound `COc1ccc([I+]c2cccc(C(=O)NS(=O)(=O)C(F)(F)C(F)(F)C(F)(F)S(=O)(=O)[N-]S(=O)(=O)C(F)(F)F)c2)cc1` [Compound X-11] showed a pKa of 10.26. The compound `O=S(=O)(O)c1ccc([S+](c2ccccc2)c2ccc(OCC(F)(F)S(=O)(=O)[O-])cc2)cc1` (stereo not shown) [Compound X-6] showed a pKa of 0.77. With `O=C(NC(C(F)(F)F)C(F)(F)S(=O)(=O)[O-])c1ccc([S+](c2ccccc2)c2ccccc2S(=O)(=O)O)cc1` (stereo not shown) [Compound X-3], the pKa is given as 1.24. In the case of `O=C([N-]C(=O)c1ccccc1[I+]c1ccccc1)c1ccc([I+]c2ccc(OS(=O)(=O)C(F)(F)C(F)(F)C(F)(F)S(=O)(=O)[O-])cc2)cc1` [Compound X-16] it was 12.11.
